Test results as given in article PMC4076210, “Discovery of Novel AKT Inhibitors with Enhanced Anti-Tumor Effects in Combination with the MEK Inhibitor” (PLoS ONE, 2014).
Read-outs that look alike come from different tables or passages of the source.

Experiments:
Type in all cases: biochemical
PKCθ = PKCθ (Homo sapiens, UniProt Q04759); test: Kinase IC50 assay
CaMKIV(h) = biological target: T1, CaMKIV(h) (Homo sapiens, UniProt Q16566); test: Kinase panel
T1 construct: purchased Millipore KinaseProfiler
T1 sequence (Q16566 1-473): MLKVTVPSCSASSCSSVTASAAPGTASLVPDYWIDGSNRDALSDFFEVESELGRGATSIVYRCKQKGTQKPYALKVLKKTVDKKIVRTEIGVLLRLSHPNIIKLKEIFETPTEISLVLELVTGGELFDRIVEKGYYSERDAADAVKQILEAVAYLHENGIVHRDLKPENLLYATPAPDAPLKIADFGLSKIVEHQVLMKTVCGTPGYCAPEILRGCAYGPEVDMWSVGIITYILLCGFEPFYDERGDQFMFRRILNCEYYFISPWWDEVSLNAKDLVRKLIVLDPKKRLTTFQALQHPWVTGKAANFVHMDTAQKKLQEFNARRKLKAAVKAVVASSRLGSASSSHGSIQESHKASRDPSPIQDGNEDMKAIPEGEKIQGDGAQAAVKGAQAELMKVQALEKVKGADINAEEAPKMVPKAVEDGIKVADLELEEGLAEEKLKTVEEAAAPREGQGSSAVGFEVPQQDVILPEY

Pyk2(h) = biological target: T2, Pyk2(h) (Homo sapiens, UniProt Q14289); test: Kinase panel
T2 construct: purchased Millipore KinaseProfiler

HIPK1(h) = biological target: T3, HIPK1(h) (Homo sapiens, UniProt Q86Z02); test: Kinase panel
T3 construct: purchased Millipore KinaseProfiler

Plk3(h) = biological target: T4, Plk3(h) (Homo sapiens, UniProt Q9H4B4); test: Kinase panel
T4 construct: purchased Millipore KinaseProfiler
T4 sequence (Q9H4B4 whole entry): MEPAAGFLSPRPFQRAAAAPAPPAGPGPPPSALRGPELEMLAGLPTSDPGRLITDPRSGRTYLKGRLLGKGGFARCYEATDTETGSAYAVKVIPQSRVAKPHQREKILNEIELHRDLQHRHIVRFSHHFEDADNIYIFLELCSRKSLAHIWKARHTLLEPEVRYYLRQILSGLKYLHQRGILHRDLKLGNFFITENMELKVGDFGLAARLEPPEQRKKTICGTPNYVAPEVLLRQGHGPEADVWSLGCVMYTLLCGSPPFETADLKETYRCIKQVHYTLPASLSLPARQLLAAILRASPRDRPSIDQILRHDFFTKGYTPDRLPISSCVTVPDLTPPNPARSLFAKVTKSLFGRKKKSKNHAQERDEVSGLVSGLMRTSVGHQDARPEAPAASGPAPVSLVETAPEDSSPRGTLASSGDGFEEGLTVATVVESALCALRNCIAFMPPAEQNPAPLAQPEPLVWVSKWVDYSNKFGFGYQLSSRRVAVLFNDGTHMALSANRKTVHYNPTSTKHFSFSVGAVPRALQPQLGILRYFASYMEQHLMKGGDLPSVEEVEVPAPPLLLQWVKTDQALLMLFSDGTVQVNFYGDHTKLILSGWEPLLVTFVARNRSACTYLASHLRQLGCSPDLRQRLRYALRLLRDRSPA

IKKβ(h) = biological target: T5, IKKβ(h) (Homo sapiens, UniProt O14920); test: Kinase panel
T5 construct: purchased Millipore KinaseProfiler
T5 sequence (O14920 1-756): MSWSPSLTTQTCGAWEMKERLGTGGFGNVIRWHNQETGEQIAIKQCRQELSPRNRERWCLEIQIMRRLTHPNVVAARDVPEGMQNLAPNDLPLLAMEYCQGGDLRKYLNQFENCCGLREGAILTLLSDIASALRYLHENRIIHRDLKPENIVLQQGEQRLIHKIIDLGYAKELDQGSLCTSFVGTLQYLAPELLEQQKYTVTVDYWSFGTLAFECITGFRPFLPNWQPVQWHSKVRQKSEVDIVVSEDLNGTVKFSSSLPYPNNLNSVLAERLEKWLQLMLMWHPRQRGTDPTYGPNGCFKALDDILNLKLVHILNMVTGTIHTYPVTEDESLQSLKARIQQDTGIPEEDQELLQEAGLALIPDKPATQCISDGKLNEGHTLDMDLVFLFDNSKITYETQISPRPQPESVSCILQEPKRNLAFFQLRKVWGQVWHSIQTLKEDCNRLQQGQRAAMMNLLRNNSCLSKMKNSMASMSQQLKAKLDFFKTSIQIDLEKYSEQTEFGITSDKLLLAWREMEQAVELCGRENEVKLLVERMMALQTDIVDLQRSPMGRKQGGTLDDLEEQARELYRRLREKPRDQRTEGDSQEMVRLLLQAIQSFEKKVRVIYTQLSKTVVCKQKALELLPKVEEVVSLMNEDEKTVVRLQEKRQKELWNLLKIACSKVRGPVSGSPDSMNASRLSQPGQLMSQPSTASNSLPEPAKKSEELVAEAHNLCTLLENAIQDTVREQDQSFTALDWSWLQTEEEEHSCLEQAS

PAR-1Bα(h) = biological target: T6, PAR-1Bα(h) (Homo sapiens, UniProt Q7KZI7); test: Kinase panel
T6 construct: purchased Millipore KinaseProfiler
T6 sequence (Q7KZI7 1-725 isoform Q7KZI7-4): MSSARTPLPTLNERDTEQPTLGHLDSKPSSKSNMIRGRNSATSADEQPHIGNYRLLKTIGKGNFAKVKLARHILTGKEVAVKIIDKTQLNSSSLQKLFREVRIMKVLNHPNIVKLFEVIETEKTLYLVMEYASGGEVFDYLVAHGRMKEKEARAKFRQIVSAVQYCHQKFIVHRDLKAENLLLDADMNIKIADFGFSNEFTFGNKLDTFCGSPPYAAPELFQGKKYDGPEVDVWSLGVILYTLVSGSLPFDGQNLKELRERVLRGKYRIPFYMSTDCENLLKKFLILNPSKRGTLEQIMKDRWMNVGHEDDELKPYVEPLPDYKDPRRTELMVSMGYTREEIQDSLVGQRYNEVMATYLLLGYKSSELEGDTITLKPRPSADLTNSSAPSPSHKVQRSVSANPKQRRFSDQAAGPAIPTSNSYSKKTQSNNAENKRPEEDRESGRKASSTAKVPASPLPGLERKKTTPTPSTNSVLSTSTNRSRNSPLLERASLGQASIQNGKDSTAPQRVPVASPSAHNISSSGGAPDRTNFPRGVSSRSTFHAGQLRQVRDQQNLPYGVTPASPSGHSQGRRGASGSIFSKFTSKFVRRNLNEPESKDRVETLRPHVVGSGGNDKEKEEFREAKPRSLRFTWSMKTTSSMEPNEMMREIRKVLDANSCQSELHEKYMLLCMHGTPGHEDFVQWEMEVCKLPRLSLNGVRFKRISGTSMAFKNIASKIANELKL

ACK1(h) = biological target: T7, ACK1(h) (Homo sapiens, UniProt Q07912); test: Kinase panel
T7 construct: purchased Millipore KinaseProfiler

Met(h) = biological target: T8, Met(h) (Homo sapiens, UniProt P08581); test: Kinase panel
T8 construct: purchased Millipore KinaseProfiler
T8 sequence (P08581 25-1390): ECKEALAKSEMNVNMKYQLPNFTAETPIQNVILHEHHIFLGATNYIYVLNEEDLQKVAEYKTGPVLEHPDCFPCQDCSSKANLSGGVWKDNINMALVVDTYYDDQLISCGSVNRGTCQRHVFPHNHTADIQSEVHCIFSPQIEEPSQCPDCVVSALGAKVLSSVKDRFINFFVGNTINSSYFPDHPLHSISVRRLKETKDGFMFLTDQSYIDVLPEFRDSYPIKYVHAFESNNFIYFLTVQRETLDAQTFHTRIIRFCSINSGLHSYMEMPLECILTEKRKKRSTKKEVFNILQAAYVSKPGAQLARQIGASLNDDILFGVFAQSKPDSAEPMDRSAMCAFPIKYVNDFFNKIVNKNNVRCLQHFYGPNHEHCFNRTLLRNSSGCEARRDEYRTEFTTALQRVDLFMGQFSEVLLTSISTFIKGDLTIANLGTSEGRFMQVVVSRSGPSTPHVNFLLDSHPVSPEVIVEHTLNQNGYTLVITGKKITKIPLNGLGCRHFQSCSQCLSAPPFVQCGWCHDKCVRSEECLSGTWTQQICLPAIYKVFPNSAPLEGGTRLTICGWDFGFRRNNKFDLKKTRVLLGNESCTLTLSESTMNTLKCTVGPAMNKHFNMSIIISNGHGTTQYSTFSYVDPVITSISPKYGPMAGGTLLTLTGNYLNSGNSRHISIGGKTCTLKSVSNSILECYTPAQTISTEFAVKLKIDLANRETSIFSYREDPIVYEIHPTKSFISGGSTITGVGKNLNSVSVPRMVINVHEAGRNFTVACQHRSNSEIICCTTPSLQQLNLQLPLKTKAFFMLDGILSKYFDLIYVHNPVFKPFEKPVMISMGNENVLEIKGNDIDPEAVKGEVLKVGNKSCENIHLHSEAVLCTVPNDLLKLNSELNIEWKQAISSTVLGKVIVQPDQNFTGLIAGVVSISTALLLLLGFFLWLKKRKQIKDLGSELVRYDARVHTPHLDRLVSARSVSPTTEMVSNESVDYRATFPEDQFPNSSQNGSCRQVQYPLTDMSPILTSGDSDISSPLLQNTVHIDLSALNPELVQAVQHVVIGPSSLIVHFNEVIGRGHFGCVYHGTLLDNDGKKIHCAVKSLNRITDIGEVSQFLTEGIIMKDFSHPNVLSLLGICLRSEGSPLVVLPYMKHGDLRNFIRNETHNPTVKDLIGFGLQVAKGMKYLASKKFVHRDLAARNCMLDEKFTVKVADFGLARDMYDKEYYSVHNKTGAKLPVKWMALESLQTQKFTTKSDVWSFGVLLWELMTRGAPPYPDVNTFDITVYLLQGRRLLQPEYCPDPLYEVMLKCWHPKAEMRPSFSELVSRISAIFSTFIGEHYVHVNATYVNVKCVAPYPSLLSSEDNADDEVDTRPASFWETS

RIPK2(h) = biological target: T9, RIPK2(h) (Homo sapiens, UniProt O43353); test: Kinase panel
T9 construct: purchased Millipore KinaseProfiler
T9 sequence (O43353 whole entry): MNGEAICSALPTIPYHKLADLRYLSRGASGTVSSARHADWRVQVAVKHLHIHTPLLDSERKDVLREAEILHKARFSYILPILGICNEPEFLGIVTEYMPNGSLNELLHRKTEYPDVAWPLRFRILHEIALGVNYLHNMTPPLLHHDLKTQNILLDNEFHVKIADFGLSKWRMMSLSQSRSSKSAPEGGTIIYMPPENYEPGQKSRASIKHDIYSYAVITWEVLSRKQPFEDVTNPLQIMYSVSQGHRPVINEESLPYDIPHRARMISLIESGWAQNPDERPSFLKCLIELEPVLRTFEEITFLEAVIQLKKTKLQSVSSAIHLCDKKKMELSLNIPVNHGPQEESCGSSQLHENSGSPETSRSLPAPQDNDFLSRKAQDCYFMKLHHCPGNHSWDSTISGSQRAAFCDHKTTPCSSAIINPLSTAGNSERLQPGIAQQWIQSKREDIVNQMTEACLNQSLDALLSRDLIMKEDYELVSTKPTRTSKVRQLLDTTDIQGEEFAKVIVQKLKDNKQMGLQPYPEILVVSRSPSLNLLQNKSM

ARK5(h) = biological target: T10, ARK5(h) (Homo sapiens, UniProt O60285); test: Kinase panel
T10 construct: purchased Millipore KinaseProfiler
T10 sequence (O60285 1-661): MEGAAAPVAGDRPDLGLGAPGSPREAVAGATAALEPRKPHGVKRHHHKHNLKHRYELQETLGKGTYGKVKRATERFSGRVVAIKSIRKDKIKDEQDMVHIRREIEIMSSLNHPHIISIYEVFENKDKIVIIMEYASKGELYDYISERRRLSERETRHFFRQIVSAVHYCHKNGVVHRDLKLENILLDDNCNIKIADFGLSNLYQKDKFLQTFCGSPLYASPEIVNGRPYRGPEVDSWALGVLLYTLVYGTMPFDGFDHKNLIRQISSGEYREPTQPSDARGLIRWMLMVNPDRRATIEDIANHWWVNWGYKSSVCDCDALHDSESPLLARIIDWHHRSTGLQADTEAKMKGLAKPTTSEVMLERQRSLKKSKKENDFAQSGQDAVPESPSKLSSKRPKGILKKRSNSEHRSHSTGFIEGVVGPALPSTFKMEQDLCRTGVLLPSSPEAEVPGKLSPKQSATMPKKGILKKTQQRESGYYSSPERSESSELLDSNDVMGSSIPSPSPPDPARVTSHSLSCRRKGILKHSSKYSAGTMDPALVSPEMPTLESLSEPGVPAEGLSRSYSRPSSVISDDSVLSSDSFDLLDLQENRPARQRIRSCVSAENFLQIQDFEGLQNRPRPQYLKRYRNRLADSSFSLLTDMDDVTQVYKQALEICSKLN

PKCγ(h) = biological target: T11, PKCγ(h) (Homo sapiens, UniProt P05129); test: Kinase panel
T11 construct: purchased Millipore KinaseProfiler

SAPK2b(h) = biological target: T12, SAPK2b(h) (Homo sapiens, UniProt Q15759); test: Kinase panel
T12 construct: purchased Millipore KinaseProfiler
T12 sequence (Q15759 whole entry): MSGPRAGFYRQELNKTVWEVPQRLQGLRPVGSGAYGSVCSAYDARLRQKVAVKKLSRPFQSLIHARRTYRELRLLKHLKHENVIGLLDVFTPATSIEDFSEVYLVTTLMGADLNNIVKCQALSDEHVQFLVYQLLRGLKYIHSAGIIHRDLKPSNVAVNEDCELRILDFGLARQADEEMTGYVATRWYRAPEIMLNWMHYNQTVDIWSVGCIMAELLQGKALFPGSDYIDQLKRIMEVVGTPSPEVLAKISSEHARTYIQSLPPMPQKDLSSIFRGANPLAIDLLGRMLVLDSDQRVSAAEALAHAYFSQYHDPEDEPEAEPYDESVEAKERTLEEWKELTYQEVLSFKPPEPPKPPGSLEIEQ

CDK6/cyclinD3(h) = biological target: T13, CDK6/cyclinD3(h) (Homo sapiens, UniProt Q00534); test: Kinase panel
T13 construct: purchased Millipore KinaseProfiler
T13 sequence (Q00534 whole entry): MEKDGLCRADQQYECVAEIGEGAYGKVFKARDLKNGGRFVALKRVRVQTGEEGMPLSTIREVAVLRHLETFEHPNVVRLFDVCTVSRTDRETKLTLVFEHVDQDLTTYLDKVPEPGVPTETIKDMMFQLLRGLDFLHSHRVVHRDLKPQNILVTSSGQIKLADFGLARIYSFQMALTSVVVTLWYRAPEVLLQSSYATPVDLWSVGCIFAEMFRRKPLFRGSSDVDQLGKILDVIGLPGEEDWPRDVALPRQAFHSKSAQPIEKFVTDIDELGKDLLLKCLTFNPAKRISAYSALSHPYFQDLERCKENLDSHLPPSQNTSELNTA
T13 sequence (P30281 whole entry partner): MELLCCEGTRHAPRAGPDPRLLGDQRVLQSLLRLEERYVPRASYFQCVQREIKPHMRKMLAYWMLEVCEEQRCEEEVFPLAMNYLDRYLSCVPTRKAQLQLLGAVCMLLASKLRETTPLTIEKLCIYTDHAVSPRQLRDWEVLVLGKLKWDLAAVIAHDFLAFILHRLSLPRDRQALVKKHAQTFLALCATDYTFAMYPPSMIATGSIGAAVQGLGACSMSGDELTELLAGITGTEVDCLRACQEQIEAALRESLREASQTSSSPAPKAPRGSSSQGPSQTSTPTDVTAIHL

## Cn1ncc(Cl)c1-c1cc(C(=O)N[C@H](CN)Cc2cccc(F)c2)sc1Cl [GSK2110183]
PKCθ
  IC50: 510 nM
CaMKIV(h)
  inhibition at 0.5 µM: -15%
  inhibition at 10 µM: 0%
Pyk2(h)
  inhibition at 0.5 µM: -7%
  inhibition at 10 µM: 2%
HIPK1(h)
  inhibition at 0.5 µM: 9%
  inhibition at 10 µM: 72%
Plk3(h)
  inhibition at 0.5 µM: -3%
  inhibition at 10 µM: 16%
IKKβ(h)
  inhibition at 0.5 µM: 5%
  inhibition at 10 µM: 18%
PAR-1Bα(h)
  inhibition at 0.5 µM: 15%
  inhibition at 10 µM: 84%
ACK1(h)
  inhibition at 0.5 µM: 1%
  inhibition at 10 µM: 8%
Met(h)
  inhibition at 0.5 µM: -7%
  inhibition at 10 µM: 11%
RIPK2(h)
  inhibition at 0.5 µM: -8%
  inhibition at 10 µM: -3%
ARK5(h)
  inhibition at 0.5 µM: -6%
  inhibition at 10 µM: 9%
PKCγ(h)
  inhibition at 0.5 µM: 39%
  inhibition at 10 µM: 90%
SAPK2b(h)
  inhibition at 0.5 µM: -8%
  inhibition at 10 µM: -13%
CDK6/cyclinD3(h)
  inhibition at 0.5 µM: 0%
  inhibition at 10 µM: 5%

## Cn1ncc(Cl)c1-c1cc(C(=O)N[C@H](CN)Cc2ccc(F)c(F)c2)oc1Cl [GSK2141795]
PKCθ
  IC50: 64 nM
CaMKIV(h); 0.5 µM, read-out: % Inhibition
  inhibition at 0.5 µM: -18%
CaMKIV(h); 10 µM, read-out: % Inhibition
  inhibition at 10 µM: -21%
Pyk2(h); 0.5 µM, read-out: % Inhibition
  inhibition at 0.5 µM: 1%
Pyk2(h); 10 µM, read-out: % Inhibition
  inhibition at 10 µM: 16%
HIPK1(h); 0.5 µM, read-out: % Inhibition
  inhibition at 0.5 µM: 2%
HIPK1(h); 10 µM, read-out: % Inhibition
  inhibition at 10 µM: 62%
Plk3(h); 0.5 µM, read-out: % Inhibition
  inhibition at 0.5 µM: -7%
Plk3(h); 10 µM, read-out: % Inhibition
  inhibition at 10 µM: 59%
IKKβ(h); 0.5 µM, read-out: % Inhibition
  inhibition at 0.5 µM: -2%
IKKβ(h); 10 µM, read-out: % Inhibition
  inhibition at 10 µM: 13%
PAR-1Bα(h); 0.5 µM, read-out: % Inhibition
  inhibition at 0.5 µM: 24%
PAR-1Bα(h); 10 µM, read-out: % Inhibition
  inhibition at 10 µM: 83%
ACK1(h); 0.5 µM, read-out: % Inhibition
  inhibition at 0.5 µM: -2%
ACK1(h); 10 µM, read-out: % Inhibition
  inhibition at 10 µM: 0%
Met(h); 0.5 µM, read-out: % Inhibition
  inhibition at 0.5 µM: -28%
Met(h); 10 µM, read-out: % Inhibition
  inhibition at 10 µM: -6%
RIPK2(h); 0.5 µM, read-out: % Inhibition
  inhibition at 0.5 µM: 3%
RIPK2(h); 10 µM, read-out: % Inhibition
  inhibition at 10 µM: 15%
ARK5(h); 0.5 µM, read-out: % Inhibition
  inhibition at 0.5 µM: -5%
ARK5(h); 10 µM, read-out: % Inhibition
  inhibition at 10 µM: 18%
PKCγ(h); 0.5 µM, read-out: % Inhibition
  inhibition at 0.5 µM: 63%
PKCγ(h); 10 µM, read-out: % Inhibition
  inhibition at 10 µM: 95%
SAPK2b(h); 0.5 µM, read-out: % Inhibition
  inhibition at 0.5 µM: -17%
SAPK2b(h); 10 µM, read-out: % Inhibition
  inhibition at 10 µM: -9%
CDK6/cyclinD3(h); 0.5 µM, read-out: % Inhibition
  inhibition at 0.5 µM: -12%
CDK6/cyclinD3(h); 10 µM, read-out: % Inhibition
  inhibition at 10 µM: -12%
